Test [1] relates to Toxoplasma gondii RH-β1 strain. The test can be described thus: microbe, parasite or virus in culture. Format: cell-based. Conditions: Toxoplasma gondii, read-out: IC50 assessed on Toxoplama Gondii.
Test [2] concerns asynchronous 3D7 chloroquine-sensitive P. falciparum infected red blood cells. In words: Labeled hypoxanthine incorporation assay (in vitro anti-malarial activity). The test is classed as cell-based. Conditions: Plasmodium falciparum, 3D7, Erythrocyte, read-out: IC50 assessed on Plasmodium Falciparum.
Where [3] appears, read: 3D7 chloroquine-sensitive strain, infected RBC, 48 h contact, [3H]-hypoxanthine incorporation, two independent experiments in duplicates.

Where a name gives a salt, the structure may show the parent alone. Read-outs that look alike come from different tables or passages of the source.

The term IC50 denotes the concentration needed to halve the response being measured. In the case of `O=C(OCCN(CCCc1ccccc1)Cc1ccccc1)N1CCC(n2c(=O)[nH]c3ccccc32)CC1` [Compound 120, 2-(benzyl(3-phenylpropyl)amino)ethyl 4-(2-oxo-2,3-dihydro-1H-benzo[d]imidazol-1-yl)piperidine-1-carboxylate hydrochloride], the IC50 in test [1] stood at 1700 nM; in test [2] (setting [3]) it was 3610 nM.

With `C[C@@H](COC(=O)N1CCC(n2c(=O)n(S(=O)(=O)c3ccccc3)c3ccccc32)CC1)N(Cc1ccccc1)Cc1ccccc1` [Compound 54, (S)-2-(dibenzylamino)propyl 4-(2-oxo-3-phenylsulfonyl-2,3-dihydro-1H-benzo[d]imidazol-1-yl)piperidine-1-carboxylate], the IC50 in test [1] was found to be 1680 nM; in test [2] (setting [3]) it was 230 nM.

For `O=C(OCCN(Cc1ccccc1)Cc1ccnc2ccccc12)N1CCC(n2c(=O)[nH]c3ccccc32)CC1` [Compound 131, 2-(benzyl(quinolin-4-ylmethyl)amino)ethyl 4-(2-oxo-2,3-dihydro-1H-benzo[d]imidazol-1-yl)piperidine-1-carboxylate hydrochloride], the IC50 in test [1] was 1050 nM; in test [2] (setting [3]), 2950 nM.

On to `C[C@@H](COC(=O)N1CCC(N2CCCc3ccccc32)CC1)N(Cc1ccccc1)Cc1ccccc1` [Compound 8, (S)-2-(dibenzylamino)propyl 4-(3,4-dihydroquinolin-1(2H)-yl)piperidine-1-carboxylate], for which the IC50 was found to be 25000 nM in test [1] and 2810 nM in test [2] (setting [3]).

For `C[C@@H](COC(=O)N1CCC(n2c(=O)n3c4c(cccc42)C(=O)CCC3)CC1)N(Cc1ccccc1)Cc1ccccc1` [Compound 79, (S)(1-((2-(dibenzylamino)propoxy)carbonyl)piperidin-4-yl)-5,6-dihydro-imidazo[4,5,1,j,k][1]benzazepine-2,7(1H,4H)-dione], the IC50 in test [1] is 11500 nM; in test [2] (setting [3]), 3120 nM.

Consider `O=C(OCCCN(Cc1ccccc1)Cc1cccs1)N1CCC(n2c(=O)[nH]c3ccccc32)CC1` [Compound 141, 3-(benzyl(thiophen-2-ylmethyl)amino)propyl 4-(2-oxo-2,3-dihydro-1H-benzo[d]imidazol-1-yl)piperidine-1-carboxylate hydrochloride], for which the IC50 in test [1] stood at 4000 nM; in test [2] (setting [3]), 4170 nM.

On to `C[C@@H](COC(=O)N1CCCC1Cn1c(=O)[nH]c2ccccc21)N(Cc1ccccc1)Cc1ccccc1` (stereo partly drawn) [Compound 23, (S)-2-(dibenzylamino)propyl 2-((1,2-dihydro-2-oxobenzo[d]imidazol-3-yl)methyl)pyrrolidine-1-carboxylate], for which the IC50 in test [1] came to 3100 nM; in test [2] (setting [3]), 7270 nM.

In the case of `C[C@@H](COC(=O)N1CCC(Oc2nc3ccccc3n2C)CC1)N(Cc1ccccc1)Cc1ccccc1` [Compound 5, (S)-2-(dibenzylamino)propyl 4-(1-methyl-1H-benzo[d]imidazol-2-yloxy)piperidine-1-carboxylate], the values for the half-maximal inhibitory concentration (IC50) in test [1] and in test [2] (setting [3]) were 2500 nM and 6160 nM, respectively.

Regarding `O=C(CCCN(Cc1ccccc1)Cc1ccccc1)N1CCC(n2c(=O)[nH]c3ccccc32)CC1` [Compound 96, 1-[1-(4-Dibenzylamino-butyryl)-piperidin-4-yl]-1,3-dihydrobenzoimidazol-2-one], the IC50 in test [1] was 6300 nM; in test [2] (setting [3]), 11300 nM.

In the case of `CCN(CCOC(=O)N1CCC(n2c(=O)[nH]c3ccccc32)CC1)c1ccccc1` [Compound 41, 2-(ethyl(phenyl)amino)ethyl 4-(2-oxo-2,3-dihydro-1H-benzo[d]imidazol-1-yl)piperidine-1-carboxylate], the IC50 was 1800 nM in test [1] and 24400 nM in test [2] (setting [3]).

In the case of `CCOC(=O)C1CN(C(=O)OC[C@H](C)N(Cc2ccccc2)Cc2ccccc2)CCC1n1c(=O)[nH]c2ccccc21` (stereo partly drawn) [Compound 18, 1-(S)-2-(dibenzylamino)propyl 3-ethyl 4-(1,2-dihydro-2-oxobenzo[d]imidazol-3-yl)piperidine-1,3-dicarboxylate], the values for the 50% inhibitory concentration (IC50) in test [1] and in test [2] (setting [3]) were 2810 nM and 1520 nM, respectively.

With `C[C@@H](COC(=O)N1CCC(n2c(=O)n(S(=O)(=O)c3cccs3)c3ccccc32)CC1)N(Cc1ccccc1)Cc1ccccc1` [Compound 59, (S)-2-(dibenzylamino)propyl 4-(2-oxo-3-(thiophen-2-ylsulfonyl)-2,3-dihydro-1H-benzo[d]imidazol-1-yl)piperidine-1-carboxylate], the values for the IC50 in test [1] and in test [2] (setting [3]) were 3800 nM and 470 nM, respectively.

For the compound `C[C@@H](COC(=O)N1CCC(n2c(=O)n(C(=O)c3ccccc3)c3ccccc32)CC1)N(Cc1ccccc1)Cc1ccccc1` [Compound 64, (S)-2-(dibenzylamino)propyl 4-(1,2-dihydro-2-oxo-1-(benzoyl)benzo[d]imidazol-3-yl)piperidine-1-carboxylate], the figures for the IC50 in test [1] and in test [2] (setting [3]) were 960 nM and 2880 nM, respectively.

As for `C[C@@H](CNC(=N)N1CCC(n2c(=O)[nH]c3ccccc32)CC1)N(Cc1ccccc1)Cc1ccccc1` [Compound 95, N—((S)-2-(dibenzylamino)propyl)-4-(1,2-dihydro-2-oxobenzo[d]imidazol-3-yl)piperidine-1-carboxamidine], the IC50 worked out at 11000 nM in test [1] and 511 nM in test [2] (setting [3]).

`O=c1[nH]c2ccccc2n1C1CCN(CCN(Cc2ccccc2)Cc2ccccc2)CC1` [Compound 52, 1-(1-(2-(dibenzylamino)ethyl)piperidin-4-yl)-1H-benzo[d]imidazol-2(3H)-one]: the IC50 in test [1] was found to be 2000 nM; in test [2] (setting [3]) it was 1570 nM.

For `C[C@@H](COC(=O)N1CCC(N(c2ccccc2)S(=O)(=O)c2cccc3c(N(C)C)cccc23)CC1)N(Cc1ccccc1)Cc1ccccc1` [Compound 172, (S)-2-(dibenzylamino)propyl 4-(N-phenyl-(5-dimethylamino)naphthalen-1-ylsulfonamido)piperidine-1-carboxylate], the IC50 in test [1] was 212 nM; in test [2] (setting [3]), 314 nM.

As to `C[C@@H](COC(=O)N1CCC(n2c(=O)[nH]c3ccccc32)CC1)N(Cc1ccccc1)Cc1cccc2ccccc12` [Compound 138, (S)-2-(benzyl(naphthalen-1-ylmethyl)amino)propyl 4-(2-oxo-2,3-dihydro-1H-benzo[d]imidazol-1-yl)piperidine-1-carboxylate hydrochloride], the IC50 in test [1] worked out at 3750 nM; in test [2] (setting [3]), 2550 nM.

On to `Cc1cccc(S(=O)(=O)N(c2ccccc2)C2CCN(C(=O)OC[C@H](C)N(Cc3ccccc3)Cc3ccccc3)CC2)c1` [Compound 168, (S)-2-(dibenzylamino)propyl 4-(N-phenyl-3-methylphenylsulfonamido)piperidine-1-carboxylate], for which the values for the IC50 in test [1] and in test [2] (setting [3]) were 2900 nM and 483 nM, respectively.

On to `O=C(OCC(c1ccccc1)c1ccccc1)N1CCC(n2c(=O)[nH]c3ccccc32)CC1` [Compound 43, 2,2-diphenylethyl 4-(1,2-dihydro-2-oxobenzo[d]imidazol-3-yl)piperidine-1-carboxylate], for which the IC50 in test [1] turned out to be 12000 nM; in test [2] (setting [3]) it was 8330 nM.

On to `C[C@@H](COC(=O)N1CCC(CCn2c(=O)[nH]c3ccccc32)CC1)N(Cc1ccccc1)Cc1ccccc1` [Compound 20, (S)-2-(dibenzylamino)propyl 4-(2-(1,2-dihydro-2-oxobenzo[d]imidazol-3-yl)ethyl)piperidine-1-carboxylate], for which the IC50 in test [1] amounted to 4200 nM; in test [2] (setting [3]), 6840 nM.

On to `O=C(OCCN(Cc1ccccc1)Cc1ccc(Cl)cc1)N1CCC(n2c(=O)[nH]c3ccccc32)CC1` [Compound 150, 2-(benzyl(4-chlorobenzyl)amino)ethyl 4-(2-oxo-2,3-dihydro-1H-benzo[d]imidazol-1-yl)piperidine-1-carboxylate], for which the IC50 in test [1] was 1500 nM; in test [2] (setting [3]) it was 2590 nM.

`C[C@@H](COC(=O)NCCCn1c(=O)[nH]c2ccccc21)N(Cc1ccccc1)Cc1ccccc1` [Compound 6, (S)-2-(dibenzylamino)propyl 3-(1,2-dihydro-2-oxobenzo[d]imidazol-3-yl)propylcarbamate]: the figures for the IC50 in test [1] and in test [2] (setting [3]) were 381 nM and 16600 nM, respectively.

As to `O=C(OCCCN(Cc1ccccc1)Cc1ccc([N+](=O)[O-])cc1)N1CCC(n2c(=O)[nH]c3ccccc32)CC1` [Compound 114, 3-(benzyl(4-nitrobenzyl)amino)propyl 4-(2-oxo-2,3-dihydro-1H-benzo[d]imidazol-1-yl)piperidine-1-carboxylate hydrochloride], the IC50 in test [1] was found to be 3300 nM; in test [2] (setting [3]), 3170 nM.

For `O=c1[nH]c2ccccc2n1C1CCN(C(=S)OCCN(Cc2ccccc2)Cc2ccccc2)CC1` [Compound 46, O-2-(dibenzylamino)ethyl 4-(1,2-dihydro-2-oxobenzo[d]imidazol-3-yl)piperidine-1-carbothioate], the results for the IC50 in test [1] and in test [2] (setting [3]) were 181 nM and 2840 nM, respectively.

In the case of `Oc1cc(Cl)ccc1Oc1ccc(Cl)cc1Cl` [Triclosan, reference compound], the IC50 in test [1] is 320 nM; in test [2], 1550 nM.

As for `COc1ccc(NC2CCN(C(=O)OC[C@H](C)N(Cc3ccccc3)Cc3ccccc3)CC2)cc1` [Compound 81, (S)-2-(dibenzylamino)propyl 4-(4-methoxyphenylamino)piperidine-1-carboxylate], the IC50 was determined as 10000 nM in test [1] and 8420 nM in test [2] (setting [3]).

Consider `C[C@@H](COC(=O)N1CCC(N(c2ccccc2)S(=O)(=O)c2cccs2)CC1)N(Cc1ccccc1)Cc1ccccc1` [Compound 159, (S)-2-(dibenzylamino)propyl 4-(N-phenylthiophen-2-ylsulfonamido)piperidine-1-carboxylate], for which the IC50 is 1000 nM in test [1] and 861 nM in test [2] (setting [3]).

For `O=C(OCCN(Cc1ccccc1)Cc1ccc([N+](=O)[O-])cc1)N1CCC(n2c(=O)[nH]c3ccccc32)CC1` [Compound 98, 2-(N-(4-nitrobenzyl)-N-benzylamino)ethyl 4-(1,2-dihydro-2-oxobenzo[d]imidazol-3-yl)piperidine-1-carboxylate], the results for the IC50 in test [1] and in test [2] (setting [3]) were 3330 nM and 3040 nM, respectively.

These data come from patent publication US20100292214A1, “Compounds with Antiparasitic Activity, Applications thereof to the Treatment of Infectious Diseases Caused by Apicomplexans” (commissariat a l'Energie Atomique, priority 2007, published 2010).
